Source: US8796320B2, “1,3,4-Oxadiazole-2-carboxamide compound” (General Incorporated Association Pharma Valley Project …, priority 2009, dated 2014)
Counter-ions that a name gives are not always drawn.

Legend:
Format in all cases: cell-based
[1] = test system: Human lymphoma SCC-3 cells; test: SCC-3 cell growth inhibition test (MTT method); conditions: 72-hour culture
Protocol: Human lymphoma SCC-3 cells purchased from Japan Health Sciences Foundation were cultured for […] at a density of 5000 cells/well in a 96-well plate with RPMI1640 (Sigma-Aldrich Corp.) containing 10% fetal bovine serum (FBS; GIBCO) as a culture medium.
Simultaneously with cell inoculation, each test compound diluted to various concentrations with an RPMI medium was added to each well. After 72-hour culture, cell growth inhibitory activity was determined by the MTT method (J. Immunol. Methods, 1993, 65, 581-593) using a microplate reader (NJ-2300, BioTek Instruments, Inc.).
The test results were indicated in a concentration (IC50) at which 50% cell growth was inhibited.

STAT3 = STAT3 transcription inhibition test (reporter gene method); conditions: Homo sapiens; compound at 100 μM; STAT3 reporter HeLa stable cell line, oncostatin M 10 ng/mL, 4 hours; read-out: STAT3 transcription inhibitory activity (%)
Protocol: The inhibition of STAT3 transcription was evaluated by using STAT3 reporter HeLa stable cell line (Panomics Inc., catalog No. RC0003), a cell line for the reporter gene method, and performing the following method according to the appendix included therein.
STAT3, reporter HeLa stable cell line subcultured and maintained in a Dulbecco's modified Eagle's medium (DMEM) containing 10% fetal bovine serum, 100 units/mL penicillin, and 100 μg/mL streptomycin was inoculated at a concentration of 40000 cells/well to a 96-well plate (white) and attached to the plate by overnight incubation at 37° C. under 5% CO2. After addition of each evaluation compound adjusted to various concentrations (adjusted with a DMSO solution), the cells were precultured for 1 hour. Then, oncostatin M for activating STAT3 was added at a final concentration 10 ng/mL, and the cells were further cultured at 37° C. under 5% CO2 for 4 hours. Luciferase activity derived from the cells was determined using Steady-Glo Luciferase Assay System (Promega Corp.), and STAT3 transcriptional activity scores were calculated according to the following formula: STAT3 transcriptional activity score (%)=100×(Lchem−L0)/(LDMSO−L0) • L0: luminescence intensity obtained without stimulation with oncostatin M • Lchem: luminescence intensity obtained by the addition of a test sample • LDMSO: luminescence intensity obtained by the addition of only a solvent for dissolving a test sample
The test results were indicated in the rate of inhibition of STAT3 transcription by each compound at a concentration of 100 μM.

MDA-MB-468 = MDA-MB-468 cell growth inhibitory activity; conditions: Homo sapiens; compound at 20 μM; MDA-MB-468, 72 hours
Protocol: MDA-MB-468 diluted with phenol red-free DMEM/F-12 (GIBCO; 10% FBS, 20 units/ml penicillin/streptomycin) was inoculated at a concentration of 2000 cells/well to a 96-well plate (Greiner Bio-One) and cultured overnight at 37° C. in the presence of 5% CO2. Then, a test sample solution (containing 2 (v/v)% DMSO) adjusted to 10 μM was added thereto at a concentration of 10 μL/well and contacted with the cells at 37° C. for 72 hours in the presence of 5% CO2. Each well was washed three times with a medium. Then, after addition of 100 μL/well of a medium and 20 μL/well of CellTiter 96 AQueous, One Solution Reagent (Promega Corp.), the cells were incubated at 37° C. for 2 hours in the presence of 5% CO2. Absorbance at 495 nm was measured using Multiplate reader (Molecular Devices, Inc.), and the rate of inhibition of cell growth was calculated according to the following formula: Rate of inhibition of cell growth (%)=100−100×(Abschem−bkgd)/(AbsDMSO−bkgd) • Abschem: absorbance obtained by the addition of a test sample • AbsDMSO: absorbance obtained by the addition of only a solvent for test sample dissolution • bkgd: absorbance obtained by the addition of CellTiter 96 AQueous One Solution Reagent to a medium for cell culture
The test results were indicated in the rate of inhibition of cell growth by each compound at a concentration of 20 μM.

Row | IC50 [1] [µM] | SMILES | inhibition at 100 µM (STAT3) [%] | inhibition at 20 µM (MDA-MB-468) [%]
1 | 1.8 | O=C(Nc1nnc(-c2ccco2)o1)c1cccc(-c2ccc(Cl)cc2)c1 [Compound Ia-11, 4′-Chloro-N-[5-(2-furyl)-1,3,4-oxadiazol-2-yl]-3-biphenylcarboxamide] | 67 | 
2 | 1 | C=Cc1ccc(-c2cccc(C(=O)Nc3nnc(-c4ccco4)o3)c2)cc1 [Compound Ia-13, N-[5-(2-Furyl)-1,3,4-oxadiazol-2-yl]-4′-vinyl-3-biphenylcarboxamide] | 67 | 
3 | 4 | O=Cc1ccc(-c2cccc(C(=O)Nc3nnc(-c4ccco4)o3)c2)cc1 [Compound Ia-17, 4′-Formyl-N-[5-(2-furyl)-1,3,4-oxadiazol-2-yl]-3-biphenylcarboxamide] | > 100 | 54
4 | 1.9 | CC(=O)c1ccc(-c2cccc(C(=O)Nc3nnc(-c4ccco4)o3)c2)cc1 [Compound Ia-18, 4′-Acetyl-N-[5-(2-furyl)-1,3,4-oxadiazol-2-yl]-3-biphenylcarboxamide] | 71 | 
5 | 1.7 | N#Cc1ccc(-c2cccc(C(=O)Nc3nnc(-c4ccco4)o3)c2)cc1 [Compound Ia-21, 4′-Cyano-N-[5-(2-furyl)-1,3,4-oxadiazol-2-yl]-3-biphenylcarboxamide] | 62 | 91
6 | 53 | NS(=O)(=O)c1ccc(-c2cccc(C(=O)Nc3nnc(-c4ccco4)o3)c2)cc1 [Compound Ia-25, N-[5-(2-Furyl)-1,3,4-oxadiazol-2-yl]-4′-sulfamoyl-3-biphenylcarboxamide] | 70 | 
7 | 1.8 | Cn1ccc2ccc(-c3cccc(C(=O)Nc4nnc(-c5ccco5)o4)c3)cc21 [Compound Ia-43, N-[5-(2-Furyl)-1,3,4-oxadiazol-2-yl]-3-(1-methyl-6-indolyl)benzenecarboxamide] | 74 | 
8 | 1.8 | CN1CCc2cc(-c3cccc(C(=O)Nc4nnc(-c5ccco5)o4)c3)ccc21 [Compound Ia-44, N-[5-(2-Furyl)-1,3,4-oxadiazol-2-yl]-3-(1-methyl-5-indolinyl)benzenecarboxamide] | 58 | 
9 | 1.1 | Cn1ccc2cc(-c3cccc(C(=O)Nc4nnc(-c5ccco5)o4)c3)ccc21 [Compound Ia-50, N-[5-(2-Furyl)-1,3,4-oxadiazol-2-yl]-3-(1-methyl-5-indolyl)benzenecarboxamide] | > 100 | 51
10 | 0.2 | O=C(Nc1nnc(-c2ccco2)o1)c1cccc(-c2ccc(-c3ccccc3)c(F)c2)c1 [Compound Ia-76, 3′-Fluoro-N-[5-(2-furyl)-1,3,4-oxadiazol-2-yl]-3-(p-terphenyl)carboxamide] | 69 | 72
11 | < 0.1 | CCc1ccc(-c2ccc(-c3cccc(C(=O)Nc4nnc(-c5ccco5)o4)c3)cc2)cc1 [Compound Ia-78, 4″-Ethyl-N-[5-(2-Furyl)-1,3,4-oxadiazol-2-yl]-3-(p-terphenyl)carboxamide] | 70 | 64
12 | < 0.1 | O=C(Nc1nnc(-c2ccco2)o1)c1cccc(-c2ccc(-c3ccc4ccccc4c3)cc2)c1 [Compound Ia-83, N-[5-(2-Furyl)-1,3,4-oxadiazol-2-yl]-4′-(2-naphthyl)-3-biphenylcarboxamide] | 75 | 71
13 | < 0.1 | O=C(Nc1nnc(-c2ccco2)o1)c1cccc(-c2ccc(C3CCCCC3)cc2)c1 [Compound Ia-84, 4′-Cyclohexyl-N-[5-(2-furyl)-1,3,4-oxadiazol-2-yl]-3-biphenylcarboxamide] | 74 | 68
14 | 0.6 | O=C(Nc1nnc(-c2ccco2)o1)c1cccc(-c2ccc(N3CCOCC3)cc2)c1 [Compound Ia-87, N-[5-(2-Furyl)-1,3,4-oxadiazol-2-yl]-4′-morpholino-3-biphenylcarboxamide formate] | 92 | 
15 |  | Cc1ccc(-c2cc(C(=O)Nc3nnc(-c4ccco4)o3)c3sc(N4CCCCC4)nc3n2)cc1 [Compound Ib-3, N-[5-(2-Furyl)-1,3,4-oxadiazol-2-yl]-5-(4-methylphenyl)-2-piperidino-7-thiazolo[4,5-b]pyridinecarboxamide] | > 100 | > 100
16 | 0.7 | COc1ccc(-c2cc(C(=O)Nc3nnc(-c4ccco4)o3)c3sc(N4CCCCC4)nc3n2)cc1OC [Compound Ib-4, N-[5-(2-Furyl)-1,3,4-oxadiazol-2-yl]-5-(3,4-dimethoxyphenyl)-2-piperidino-7-thiazolo[4,5-b]pyridinecarboxamide] | > 100 | 78
17 |  | O=C(Nc1nnc(-c2ccsc2)o1)c1cc(-c2ccccc2)nc2nc(N3CCCCC3)sc12 [Compound Ib-19, 5-Phenyl-2-piperidino-N-[5-(3-thienyl)-1,3,4-oxadiazol-2-yl]-7-thiazolo[4,5-b]pyridinecarboxamide] | 90 | 83
18 |  | O=C(Nc1nnc(-c2ccco2)o1)c1cc(-c2cccs2)nc2nc(N3CCCC3)sc12 [Compound Ib-26, N-[5-(2-Furyl)-1,3,4-oxadiazol-2-yl]-2-(1-pyrrolidinyl)-5-(2-thienyl)-7-thiazolo[4,5-b]pyridinecarboxamide] | 60 | 76
19 |  | O=C(Nc1nnc(-c2ccco2)o1)c1cc(-c2cccs2)nc2nc(N3CCCCC3)sc12 [Compound Ib-27, N-[5-(2-Furyl)-1,3,4-oxadiazol-2-yl]-2-piperidino-5-(2-thienyl)-7-thiazolo[4,5-b]pyridinecarboxamide] | 67 | 82
20 |  | O=C(Nc1nnc(-c2ccco2)o1)c1cc(-c2ccccc2)nc2nc(N3CCSCC3)sc12 [Compound Ib-30, N-[5-(2-Furyl)-1,3,4-oxadiazol-2-yl]-5-phenyl-2-(4-thiomorpholinyl)-7-thiazolo[4,5-b]pyridinecarboxamide] | > 100 | 84
21 |  | O=C(Nc1nnc(-c2ccco2)o1)c1cc(-c2ccccc2)nc2nc(N3CCC(F)(F)CC3)sc12 [Compound Ib-32, 2-(4,4-Difluoropiperidino)-N-[5-(2-furyl)-1,3,4-oxadiazol-2-yl]-5-phenyl-7-thiazolo[4,5-b]pyridinecarboxamide] | 80 | 86
22 | 16 | COc1cc([N+](=O)[O-])ccc1-c1ccc(C(=O)Nc2nnc(-c3ccco3)o2)o1 [Compound Ic-18, N-[5-(2-Furyl)-1,3,4-oxadiazol-2-yl]-5-(2-methoxy-4-nitrophenyl)-2-furancarboxamide] |  | 76
